Assay results taken from patent publication US7652025B2 (priority 2001, dated 2010).
Counter-ions that a name gives are not always drawn.

Tests used:
[1] = test system: Lipopolysaccharide (LPS)-induced lethal sepsis; set-up: species or system ICR mice; settings: mouse, in vivo
[2] = test system: experimental sepsis models; settings: reported in literature; cited from earlier work

With CN(C(=O)/C=C/c1ccoc1)[C@@H]1CC[C@@]2(O)[C@H]3Cc4ccc(O)c5c4[C@@]2(CCN3CC2CC2)[C@H]1O5.Cl [Compound 1, (−)-17-(cyclopropylmethyl)-3,14β-dihydroxy-4,5α-epoxy-6 [N-methyl-trans-3-(3-furyl)acrylamide]morphinan hydrochloric acid salt] the “survival rate after 48 hours” value [1] was 40%, the “survival rate at 24 hours after administration of LPS” value [1] was 80% and the “survival rate of sepsis model animals (FIG. 1)” value [1] was “increases the survival rate”.
With CN(C(=O)NCc1cccc(C(F)(F)F)c1)[C@@H]1CC[C@@]2(O)[C@H]3Cc4ccc(O)c5c4[C@@]2(CCN3CC2CC2)[C@H]1O5 [Compound 3, 17-cyclopropylmethyl-3,14β-dihydroxy-4,5α-epoxy-6β-(N-methyl-N′-3-trifluoromethylbenzylureido)morphinan tartaric acid salt] the “survival rate at 31 hours after administration of LPS” value [1] was 70.0%.
For CN1CC[C@]23c4c5ccc(O)c4O[C@H]2[C@@H](O)C=C[C@H]3[C@H]1C5 [morphine], the “survival rate of experimental sepsis models” value [2] is listed as “decrease survival rate”.
In the case of C=CCN1CC[C@]23c4c5ccc(O)c4O[C@H]2C(=O)CC[C@@]3(O)[C@H]1C5 [naloxone], the “fever of experimental sepsis models” value [2] is given as “suppresses fever”.
For (D)Phe-(D)Phe-(D)Nle-(D)Arg-NH2, the “survival rate at 24 hours after administration of LPS” value [1] was 66.7%.
